Data as given in patent US20080280837A1, “Biologically Active Compounds with Anti-Angiogenic Properties” (priority 2004, published 2008).

Target: T1, Human SST5 somatostatin receptor (SSTR5) (Homo sapiens, UniProt P35346)
T1 construct: expressed in transfected cells; host or cells: HEK-293 EBNA
Assay: Filter plate assay for SST5 receptor, displacement of [125I]SST-14
Format: binding
Protocol: Receptor membrane preparations containing the desired cloned receptor (for example cloned human somatostatin receptor subtype 5, SSTR5) and radio-labeled ligand (for example 3-[^125I]iodotyrosyl^11 Somatostatin-14)) were diluted at the concentration required for testing and according to the specific parameters associated with the selected receptor-ligand combination, including receptor Bmax, ligand Kd and any other parameters necessary to optimize the experimental conditions. When tested for competition activity to the reference ligand, “compound 1” was mixed with membrane suspension and the radiolabeled reference ligand (with or without an excess of cold ligand to the receptor for determination of non-specific binding) and incubated at the temperature required by internal standard operating procedures. Following incubation, the binding reaction was stopped by the addition of ice-cold washing buffer and filtered on appropriate filters, which are then counted. Data analysis and curve-fitting was performed with XLfit (IDBS).
10 mM solutions of test compounds in 100% DMSO were prepared. ˜160 μl was used for each dilution (20 μl/well in triplicate).
A 1.25 mM assay stock was prepared by making a 1:8 dilution of the 10 mM solution. (To 30 μL of the 10 mM solution was added 210 μL milli-Q H2O. A 1:5 dilution series in milli-Q H2O was then prepared.
Assays were performed in triplicate at each concentration within the 1:5 dilution series: 250 μM, 50 μM, 10 μM, […], 0.4 μM, 0.08 μM, 0.016 μM, 0.0032 μM, etc. (for SST4 assay) and 125 μM, 10 μM, 2 μM, 1 μM, 0.5 μM, etc (for SST5 assay).
Human SST5 somatostatin receptor was transfected into HEK-293 EBNA cells. Membranes were suspended in assay buffer (50 mM Tris-HCl, 1 mM EGTA, 5 mM MgCl2, 10% sucrose, pH 7.5).
After thawing the frozen receptor preparation rapidly, receptors were diluted with binding buffer, homogenized, and kept on ice. • 1. Use Multiscreen glass fiber filter plates (Millipore, Cat No MAFCNOB10) precoated with o.5% PEI for ˜2 hr at 4° C. Before use add 200 μl/well assay buffer and filter using Multiscreen Separation System. • 2. Incubate 5.5 μg of membranes (40 μl of a 1:40 dilution), buffer and [^125I]SST-14 (4 nM, ˜80 000 cpm, 2000 Ci/mmol) in a total volume of 200 μl for 60 min at 25° C. […] Prepare serial dilutions (1:5) of compounds, as described above and instead of adding SST-14 in well, add 20 μl of compounds (Table 1). • 3. Filter using Multiscreen Separation System with 5×0.2 ml ice-cold Assay buffer. • 4. Remove the plastic underdrain and dry plate in oven for 1 hr at 40° C. • 5. Seal tape to the bottom of the plate. • 6. Add 50 μl/well scintillant (Supermix, Wallac, Cat No 1200-439). • 7. Seal and count in the BJET, program 2.
In primary screening experiments compounds were tested in duplicate for a particular concentration.

T1 sequence (P35346 whole entry): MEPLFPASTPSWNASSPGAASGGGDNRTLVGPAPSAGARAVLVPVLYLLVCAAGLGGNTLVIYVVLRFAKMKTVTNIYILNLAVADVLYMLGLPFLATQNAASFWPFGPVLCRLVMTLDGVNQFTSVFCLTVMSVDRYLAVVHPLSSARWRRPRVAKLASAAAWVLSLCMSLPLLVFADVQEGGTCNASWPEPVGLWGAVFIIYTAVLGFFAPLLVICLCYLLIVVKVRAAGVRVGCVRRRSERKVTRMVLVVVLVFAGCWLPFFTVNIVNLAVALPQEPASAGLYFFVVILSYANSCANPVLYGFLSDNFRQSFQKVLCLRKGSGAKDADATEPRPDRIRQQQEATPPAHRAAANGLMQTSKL

SSTR5 Inhib 0.5 uM % (inhibition of binding of SST-14 to SSTR5)	SSTR5 Inhib 10 uM % (inhibition of binding of SST-14 to SSTR5)	SMILES
58%	87%	COC[C@H]1OC(OCc2ccc3ccccc3c2)[C@H](NC(=O)CCNC(=N)N)[C@@H](OCc2ccc(-c3ccccc3)cc2)[C@@H]1O (some centres unmarked) [Compound 86]
43%	86%	COC[C@H]1OC(OCc2ccccc2)[C@H](NC(=O)CCNC(=N)N)[C@H](OCc2ccc(-c3ccccc3)cc2)[C@@H]1O (some centres unmarked) [Compound 87]
63%	86%	COC[C@H]1OC(OCc2ccc3ccccc3c2)[C@H](NC(=O)CNC(=N)N)[C@@H](OCc2ccc(-c3ccccc3)cc2)[C@@H]1O (some centres unmarked) [Compound 88]
58%	86%	CSC1O[C@H](COCc2ccc3ccccc3c2)[C@@H](O)[C@@H](OCc2ccccc2)[C@H]1NC(=O)CCNC(=N)N (some centres unmarked) [Compound 89]
52%	86%	COC[C@H]1OC(OCc2ccc(Cl)cc2)[C@H](NC(=O)CCCN)[C@@H](OCc2ccc(-c3ccccc3)cc2)[C@@H]1O (some centres unmarked) [Compound 90]
53%	86%	CSC1O[C@H](COCc2ccccc2)[C@@H](O)[C@@H](OCc2ccc3ccccc3c2)[C@H]1NC(=O)CCCNC(=N)N (some centres unmarked) [Compound 91]
52%	86%	COC[C@H]1OC(OCc2ccc3ccccc3c2)[C@H](NC(=O)CCCN)[C@H](OCc2ccccc2)[C@@H]1O (some centres unmarked) [Compound 92]
47%	86%	COC[C@H]1OC(OCc2ccc(-c3ccccc3)cc2)[C@H](NC(=O)CCCNC(=N)N)[C@@H](OCc2ccc(Cl)cc2)[C@@H]1O (some centres unmarked) [Compound 93]
45%	86%	CSC1O[C@H](COCc2ccccc2)[C@@H](O)[C@@H](OCc2ccc(-c3ccccc3)cc2)[C@H]1NC(=O)CCCN (some centres unmarked) [Compound 94]
44%	85%	COC[C@H]1OC(OCc2ccccc2)[C@H](NC(=O)CCCN)[C@@H](OCc2ccc(-c3ccccc3)cc2)[C@@H]1O (some centres unmarked) [Compound 95]
43%	85%	COC[C@H]1OC(OCc2ccc(Cl)cc2)[C@H](NC(=O)CCCNC(=N)N)[C@@H](OCc2ccc(-c3ccccc3)cc2)[C@@H]1O (some centres unmarked) [Compound 96]
41%	85%	CSC1O[C@H](COCc2ccc3ccccc3c2)[C@@H](O)[C@@H](OCc2ccc(-c3ccccc3)cc2)[C@H]1NC(=O)CN (some centres unmarked) [Compound 97]
55%	84%	COC[C@H]1OC(OCCc2ccccc2)[C@H](NC(=O)CCCNC(=N)N)[C@@H](OCc2ccc(Cl)cc2)[C@@H]1O (some centres unmarked) [Compound 98]
43%	84%	COC[C@H]1OC(OCc2ccc(Cl)cc2)[C@H](NC(=O)CCNC(=N)N)[C@H](OCc2ccc(-c3ccccc3)cc2)[C@@H]1O (some centres unmarked) [Compound 99]
59%	84%	COC[C@H]1OC(OCc2ccccc2)[C@H](NC(=O)CCCNC(=N)N)[C@H](OCc2ccc3ccccc3c2)[C@@H]1O (some centres unmarked) [Compound 100]
50%	84%	COC[C@H]1OC(OCc2ccc(Cl)cc2)[C@H](NC(=O)CCNC(=N)N)[C@@H](OCc2ccc(-c3ccccc3)cc2)[C@@H]1O (some centres unmarked) [Compound 101]
42%	84%	COC[C@H]1OC(OCc2ccccc2)[C@H](NC(=O)CCNC(=N)N)[C@H](OCc2ccc(Cl)cc2)[C@@H]1O (some centres unmarked) [Compound 102]

SSTR5 Inhib 0.5 uM % (inhibition of binding of SST-14 to SSTR5)	SSTR5 Inhib 10 uM % (inhibition of binding of SST-14 to SSTR5)	SMILES
48%	84%	COC[C@H]1OC(OCc2ccc3ccccc3c2)[C@H](NC(=O)CCCNC(=N)N)[C@@H](OCc2ccc(Cl)cc2)[C@@H]1O (some centres unmarked) [Compound 103]
47%	84%	COC[C@H]1OC(OCc2ccc3ccccc3c2)[C@H](NC(=O)CCCNC(=N)N)[C@@H](OCc2ccc3ccccc3c2)[C@@H]1O (some centres unmarked) [Compound 104]
44%	83%	CSC1O[C@H](COCc2ccc3ccccc3c2)[C@@H](O)[C@@H](OCc2ccccc2)[C@H]1NC(=O)CCN (some centres unmarked) [Compound 105]
53%	83%	COC[C@H]1OC(OCCc2ccccc2)[C@H](NC(=O)CCN)[C@H](OCc2ccccc2)[C@@H]1O (some centres unmarked) [Compound 106]
54%	83%	COC[C@H]1OC(OCc2ccc(-c3ccccc3)cc2)[C@H](NC(=O)CCCNC(=N)N)[C@@H](OCc2ccc3ccccc3c2)[C@@H]1O (some centres unmarked) [Compound 107]
47%	83%	COC[C@H]1OC(OCc2ccc(-c3ccccc3)cc2)[C@H](NC(=O)CCNC(=N)N)[C@@H](OCc2ccc(Cl)cc2)[C@@H]1O (some centres unmarked) [Compound 108]
44%	83%	CSC1O[C@H](COCc2ccccc2)[C@@H](O)[C@@H](OCc2ccc3ccccc3c2)[C@H]1NC(=O)CCN (some centres unmarked) [Compound 109]
45%	83%	COC[C@H]1OC(OCc2ccccc2)[C@H](NC(=O)CCCN)[C@@H](OCc2ccc(Cl)cc2)[C@@H]1O (some centres unmarked) [Compound 110]
36%	83%	CSC1O[C@H](COCc2ccc(Cl)cc2)[C@@H](O)[C@@H](OCc2ccc(-c3ccccc3)cc2)[C@H]1NC(=O)CNC(=N)N (some centres unmarked) [Compound 111]
58%	83%	COC[C@H]1OC(OCc2ccccc2)[C@H](NC(=O)CCNC(=N)N)[C@H](OCc2ccccc2)[C@@H]1O (some centres unmarked) [Compound 112]
50%	83%	COC[C@H]1OC(OCc2ccc(Cl)cc2)[C@H](NC(=O)CCCN)[C@@H](OCc2cccc(O)c2)[C@@H]1O (some centres unmarked) [Compound 113]
47%	82%	CSC1O[C@H](COCc2ccc3ccccc3c2)[C@@H](O)[C@@H](OCc2ccc3ccccc3c2)[C@H]1NC(=O)CCNC(=N)N (some centres unmarked) [Compound 114]
50%	82%	COC1C(O)C(COCc2ccc3ccccc3c2)OC(OCc2ccc3ccccc3c2)C1NC(=O)CCNC(=N)N (centres unmarked) [Compound 115]
42%	82%	CSC1O[C@H](COCc2ccc3ccccc3c2)[C@@H](O)[C@@H](OCc2ccc(Cl)cc2)[C@H]1NC(=O)CNC(=N)N (some centres unmarked) [Compound 116]
46%	82%	COC[C@H]1OC(OCc2ccc(Cl)cc2)[C@H](NC(=O)CCCN)[C@H](OCc2ccccc2)[C@@H]1O (some centres unmarked) [Compound 117]
37%	81%	CSC1O[C@H](COCc2ccccc2)[C@@H](O)[C@@H](OCc2ccc(Cl)cc2)[C@H]1NC(=O)CCNC(=N)N (some centres unmarked) [Compound 118]
37%	81%	COC[C@H]1OC(OCc2ccccc2)[C@H](NC(=O)CNC(=N)N)[C@H](OCc2ccc(-c3ccccc3)cc2)[C@@H]1O (some centres unmarked) [Compound 119]
